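1) Cells in 96-well plates. 2) Compound, 48 h, 5 concentrations. 3) Linear interpolation between surrounding doses. 4) Unreached endpoint = highest concentration. GI50 marks 50% less growth.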 Active and inactive are the calls of the source. Rule as the data show it: active = GI50 up to about 1.1 µM and inactive = higher.
Tests used:
Assay in all cases: NCI-60 cell line screen, 48 h
786-0 = tested on: 786-0
A498 = tested on: A498
A549 = tested on: A549
ACHN = tested on: ACHN
CAKI-1 = tested on: CAKI-1
CCRF-CEM = tested on: CCRF-CEM
COLO 205 = tested on: COLO 205
DLD-1 = tested on: DLD-1
DMS-114 = tested on: DMS-114
DMS-273 = tested on: DMS-273
EKVX = tested on: EKVX
HCC 2998 = tested on: HCC 2998
HCT-116 = tested on: HCT-116
HCT-15 = tested on: HCT-15
HL-60 = tested on: HL-60
HOP-18 = tested on: HOP-18
HOP-92 = tested on: HOP-92
HT-29 = tested on: HT-29
IGROV-1 = tested on: IGROV-1
K562 = tested on: K562
LOX IMVI = tested on: LOX IMVI
LXFL 529 = tested on: LXFL 529
M14 = tested on: M14
M19-MEL = tested on: M19-MEL
MOLT-4 = tested on: MOLT-4
Malme-3M = tested on: Malme-3M
NCI-H226 = tested on: NCI-H226
NCI-H23 = tested on: NCI-H23
NCI-H460 = tested on: NCI-H460
NCI-H522 = tested on: NCI-H522
OVCAR-8 = tested on: OVCAR-8
RPMI-8226 = tested on: RPMI-8226
RXF 393 = tested on: RXF 393
RXF 631 = tested on: RXF 631
SF-539 = tested on: SF-539
SK-MEL-28 = tested on: SK-MEL-28
SK-MEL-5 = tested on: SK-MEL-5
SK-OV-3 = tested on: SK-OV-3
SN12C = tested on: SN12C
SNB-75 = tested on: SNB-75
SNB-78 = tested on: SNB-78
SW-620 = tested on: SW-620
TK-10 = tested on: TK-10
U-251 = tested on: U-251
UACC-257 = tested on: UACC-257
UACC-62 = tested on: UACC-62
UO-31 = tested on: UO-31
HOP-62 = tested on: HOP-62
KM-20L2 = tested on: KM-20L2
KM12 = tested on: KM12
OVCAR-3 = tested on: OVCAR-3
OVCAR-5 = tested on: OVCAR-5
SF-268 = tested on: SF-268
SF-295 = tested on: SF-295
SK-MEL-2 = tested on: SK-MEL-2
SNB-19 = tested on: SNB-19
SR = tested on: SR
XF498 = tested on: XF498

SMILES: CC1=C[C@H]2c3c([nH]c4ccccc34)C(c3c[nH]c4ccccc34)[C@H]2CC1 (some centres not stated)
- GI50 (786-0): 3.88 µM (inactive)
- GI50 (A498): 15.5 µM (inactive)
- GI50 (A549): 10.1 µM (inactive)
- GI50 (ACHN): 10.2 µM (inactive)
- GI50 (CAKI-1): 12.9 µM (inactive)
- GI50 (CCRF-CEM): 3.36 µM (inactive)
- GI50 (COLO 205): 3.41 µM (inactive)
- GI50 (DLD-1): 6.43 µM (inactive)
- GI50 (DMS-114): 5.74 µM (inactive)
- GI50 (DMS-273): 4.33 µM (inactive)
- GI50 (EKVX): 12.4 µM (inactive)
- GI50 (HCC 2998): 3.48 µM (inactive)
- GI50 (HCT-116): 3.27 µM (inactive)
- GI50 (HCT-15): 5.41 µM
- GI50 (HL-60): 4.94 µM (inactive)
- GI50 (HOP-18): 11.7 µM (inactive)
- GI50 (HOP-92): 0.536 µM (active)
- GI50 (HT-29): 3.3 µM (inactive)
- GI50 (IGROV-1): 7.96 µM (inactive)
- GI50 (K562): 3.75 µM (inactive)
- GI50 (LOX IMVI): 2.19 µM (inactive)
- GI50 (LXFL 529): 4.29 µM (inactive)
- GI50 (M14): 6.52 µM (inactive)
- GI50 (M19-MEL): 10.3 µM (inactive)
- GI50 (MOLT-4): 2.15 µM (inactive)
- GI50 (Malme-3M): 18.5 µM (inactive)
- GI50 (NCI-H226): 11 µM (inactive)
- GI50 (NCI-H23): 3.33 µM (inactive)
- GI50 (NCI-H460): 2.84 µM (inactive)
- GI50 (NCI-H522): 5.87 µM (inactive)
- GI50 (OVCAR-8): 8.59 µM (inactive)
- GI50 (RPMI-8226): 3.24 µM (inactive)
- GI50 (RXF 393): 1.74 µM (inactive)
- GI50 (RXF 631): 3.57 µM (inactive)
- GI50 (SF-539): 12.9 µM (inactive)
- GI50 (SK-MEL-28): 12.1 µM (inactive)
- GI50 (SK-MEL-5): 11.9 µM (inactive)
- GI50 (SK-OV-3): 13.7 µM (inactive)
- GI50 (SN12C): 3.75 µM (inactive)
- GI50 (SNB-75): 6.44 µM (inactive)
- GI50 (SNB-78): 3.53 µM (inactive)
- GI50 (SW-620): 6.37 µM (inactive)
- GI50 (TK-10): 14.5 µM (inactive)
- GI50 (U-251): 4.55 µM (inactive)
- GI50 (UACC-257): 13.4 µM (inactive)
- GI50 (UACC-62): 10.6 µM (inactive)
- GI50 (UO-31): > 10 µM (inactive)

SMILES: CCOC(=O)C1=C(C)NC(=O)NC1c1ccc(OC)cc1OC (configuration not stated)
- GI50 (786-0): > 100 µM (inactive)
- GI50 (A498): > 100 µM (inactive)
- GI50 (A549): > 100 µM (inactive)
- GI50 (ACHN): > 100 µM (inactive)
- GI50 (CAKI-1): > 100 µM (inactive)
- GI50 (CCRF-CEM): 84.5 µM (inactive)
- GI50 (COLO 205): > 100 µM (inactive)
- GI50 (DLD-1): > 100 µM (inactive)
- GI50 (DMS-114): > 100 µM (inactive)
- GI50 (DMS-273): > 100 µM (inactive)
- GI50 (EKVX): > 100 µM (inactive)
- GI50 (HCC 2998): > 100 µM (inactive)
- GI50 (HCT-116): > 100 µM (inactive)
- GI50 (HCT-15): > 100 µM
- GI50 (HL-60): > 100 µM (inactive)
- GI50 (HOP-18): > 100 µM (inactive)
- GI50 (HOP-62): > 100 µM (inactive)
- GI50 (HOP-92): > 100 µM (inactive)
- GI50 (HT-29): > 100 µM (inactive)
- GI50 (IGROV-1): > 100 µM (inactive)
- GI50 (K562): > 100 µM (inactive)
- GI50 (KM-20L2): > 100 µM (inactive)
- GI50 (KM12): > 100 µM (inactive)
- GI50 (LOX IMVI): > 100 µM (inactive)
- GI50 (LXFL 529): > 100 µM (inactive)
- GI50 (M14): > 100 µM (inactive)
- GI50 (M19-MEL): > 100 µM (inactive)
- GI50 (MOLT-4): > 100 µM (inactive)
- GI50 (Malme-3M): > 100 µM (inactive)
- GI50 (NCI-H226): > 100 µM (inactive)
- GI50 (NCI-H23): > 100 µM (inactive)
- GI50 (NCI-H460): > 100 µM (inactive)
- GI50 (NCI-H522): > 100 µM (inactive)
- GI50 (OVCAR-3): > 100 µM (inactive)
- GI50 (OVCAR-5): > 100 µM (inactive)
- GI50 (OVCAR-8): > 100 µM (inactive)
- GI50 (RPMI-8226): 79.1 µM (inactive)
- GI50 (RXF 393): 72.6 µM (inactive)
- GI50 (SF-268): > 100 µM (inactive)
- GI50 (SF-295): > 100 µM (inactive)
- GI50 (SK-MEL-2): > 100 µM (inactive)
- GI50 (SK-MEL-5): > 100 µM (inactive)
- GI50 (SK-OV-3): > 100 µM (inactive)
- GI50 (SN12C): > 100 µM (inactive)
- GI50 (SNB-19): > 100 µM (inactive)
- GI50 (SNB-75): > 100 µM (inactive)
- GI50 (SNB-78): > 100 µM (inactive)
- GI50 (SR): > 100 µM (inactive)
- GI50 (SW-620): > 100 µM (inactive)
- GI50 (TK-10): > 100 µM (inactive)
- GI50 (U-251): 52.6 µM (inactive)
- GI50 (UACC-257): > 100 µM (inactive)
- GI50 (UACC-62): > 100 µM (inactive)
- GI50 (UO-31): > 100 µM (inactive)
- GI50 (XF498): > 100 µM (inactive)

— ChEMBL document CHEMBL1201862, “PubChem BioAssay data set” (2004)
